In patent US20250281518A1, “METHODS AND AGENTS FOR PREVENTING SKELETAL AGING, OSTEOPOROSIS AND OBESITY” (The Regents of the University of California, priority 2022, published 2025):
“Also recorded” adds a separate entry of the source.

Tests used:
[1] = Stability of water solutions; assay type: physicochemical; settings: water solution
OVX C57BL/6J female mice = experiment: Ovariectomy (OVX)-induced osteoporosis and obesity in mice, dosing in drinking water over two months; assay type: in vivo, mouse
Source text: Aging-related bone loss and osteoporosis frequently occur in women after menopause. To mimic the pathogenesis of osteoporotic bone loss, we performed ovariectomy (OVX) on female mice to induce estrogen deficiency. […] Mice weight on average 20 g at the start of the experiment. […] Dosing was over two months.
(§1) For the mice on high fat diets, the starting animal weights were about 25 grams.
We monitored mouse body weight, food and water consumption on a weekly basis for two months. Nuclear magnetic resonance scanner was used to assess lean mass and fat mass composition. Serum chemistries were analyzed in UCLA DLAM facility. Liver and adipose tissues were harvested for histology and histomorphometric analyses. Femur, tibia and mandible were subjected to micro-CT scanning and reconstruction. […] One-way ANOVA was performed to quantify differences among all the groups.

HFD-fed mice = experiment: High fat diet (HFD)-induced obesity and bone loss in mice, dosing in drinking water for three months; assay type: in vivo, mouse
Source text: as §1
Mice were given a regular diet or high fat diet (HFD) for three months beginning at age of 8 weeks. […] Body weight, food and water consumption were monitored on a weekly basis for three months. Nuclear magnetic resonance scanner was used to assess lean mass and fat mass composition. Liver and adipose tissues were harvested for histology and histomorphometric analyses. Femur, tibia and mandible were subjected to micro-CT scanning and reconstruction. […] One-way ANOVA was performed to quantify differences among all the groups.

aged C57BL/6J male mice = experiment: Bone and adipose metabolism in aged mice, dosing in drinking water from 18 months of age for six months; assay type: in vivo, mouse; settings: for body weight: after six months treatment
Procedure: as §1
Mice weighed 40 g on average at the start of the study. Body weight, food and water consumption were monitored on a weekly basis. Nuclear magnetic resonance scanner was used to assess lean mass and fat mass composition. Liver and adipose tissues were harvested for histology and histomorphometric analyses. Femur, tibia and mandible were subjected to μCT scanning and reconstruction. […] One-way ANOVA was performed to quantify differences among all the groups.

Solubility in water = assay type: physicochemical
[2] = 100 mg/kg/day alone, compared with 500 mg/kg/day and combination groups

| Molecule | stability of the water solutions [1] | weight and size of liver (OVX C57BL/6J female mice; 100 mg/kg/day alone, OVX mice) | OVX-induced body weight gain (OVX C57BL/6J female mice; 100 mg/kg/day alone, drinking water, two months) | OVX-induced mouse body weight gain (OVX C57BL/6J female mice; 500 mg/kg/day alone, drinking water, two months) | fat mass (nuclear magnetic resonance) (HFD-fed mice; 100 mg/kg/day alone, HFD) | weight gains induced by HFD (HFD-fed mice; low concentration (100 mg/kg/day) alone, three months) | pgWAT weight gain induced by HFD (HFD-fed mice; low concentration alone) | body weight (aged C57BL/6J male mice; 100 mg/kg/day alone, compared with control) | fat mass and lean mass (nuclear magnetic resonance) (aged C57BL/6J male mice; [2]) | weight and size of liver (aged C57BL/6J male mice; [2]) | weight of pgWAT (aged C57BL/6J male mice; [2]) | body weight (aged C57BL/6J male mice; 500 mg/kg/day alone) | weight and size of liver (aged C57BL/6J male mice; 500 mg/kg/day alone, comparison is worded from the side of control and 100 mg/kg/day groups) | solubility in water (Solubility in water) |
| --- | --- | --- | --- | --- | --- | --- | --- | --- | --- | --- | --- | --- | --- | --- |
| alpha-ketoglutarate [α-KG] | highly stable | – | – | – | – | – | – | – | – | – | – | – | – | – |
| NC(=O)c1ccc[n+]([C@@H]2O[C@H](COP(=O)([O-])O)[C@@H](O)[C@H]2O)c1 [NMN, 3-carbamoyl-1-[5-O-(hydroxyphosphinato)-β-D-ribofuranosyl]pyridinium] | highly stable | did not significantly affect | ineffective; also recorded: did not significantly inhibit | significantly inhibited | could not affect | did not significantly reduce | did not significantly inhibit | increased at a similar rate | significantly higher fat mass and lower lean mass | significantly higher | significantly higher | decreased significantly | significantly higher in control, 100 mg/kg/day α-KG, and 100 mg/kg/day NMN groups compared with | dissolve well in water |
